Laboratory results reported in PubChem BioAssay (NCI).
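Tested at 5 concentrations; 48 h exposure; 96-well plates; endpoints linearly interpolated, else capped at highest concentration. GI50 = concentration required for 50% inhibition of growth. TGI denotes the concentration required for complete inhibition of growth.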

Assays:
Assay in all cases: NCI anticancer screen, dose series, 48 h
A549 NSCLC = tested on: A549 NSCLC
KM12 colon = tested on: KM12 colon
DU-145 prostate = tested on: DU-145 prostate
NCI-H226 lung = tested on: NCI-H226 lung
MALME-3M melanoma = tested on: MALME-3M melanoma
SF-295 CNS = tested on: SF-295 CNS
HCT-116 colon = tested on: HCT-116 colon
CAKI-1 renal = tested on: CAKI-1 renal
UO-31 renal = tested on: UO-31 renal
HOP-62 NSCLC = tested on: HOP-62 NSCLC
HS 578T breast = tested on: HS 578T breast
HCC-2998 colon = tested on: HCC-2998 colon
OVCAR-4 ovarian = tested on: OVCAR-4 ovarian
HL-60(TB) leukemia = tested on: HL-60(TB) leukemia
SW-620 colon = tested on: SW-620 colon
NCI/ADR-RES ovarian = tested on: NCI/ADR-RES ovarian
NCI-H522 lung = tested on: NCI-H522 lung
RXF 393 renal = tested on: RXF 393 renal
SK-MEL-5 melanoma = tested on: SK-MEL-5 melanoma
SF-539 CNS = tested on: SF-539 CNS
MDA-MB-435 = tested on: MDA-MB-435
SNB-75 CNS = tested on: SNB-75 CNS
UACC-62 melanoma = tested on: UACC-62 melanoma
PC-3 prostate = tested on: PC-3 prostate
TK-10 renal = tested on: TK-10 renal
NCI-H23 lung = tested on: NCI-H23 lung
HCT-15 colon = tested on: HCT-15 colon
CCRF-CEM leukemia = tested on: CCRF-CEM leukemia
LOX IMVI melanoma = tested on: LOX IMVI melanoma

COC(=O)Nc1nc2ccc(C(=O)c3cccc(I)c3)cc2[nH]1 showed a GI50 (A549 NSCLC) of 69.9 nM, a TGI (A549 NSCLC) of 15000 nM and a GI50 (KM12 colon) of 41.8 nM. For the same compound, the TGI (KM12 colon) was 5700 nM, the GI50 (DU-145 prostate) was 86.1 nM and the TGI (DU-145 prostate) was 1760 nM. The GI50 (NCI-H226 lung) was 259 nM, the TGI (NCI-H226 lung) was 25400 nM and the GI50 (MALME-3M melanoma) was 274 nM. The TGI (MALME-3M melanoma) was 24100 nM, the GI50 (SF-295 CNS) was 64.7 nM and the TGI (SF-295 CNS) was 5940 nM. The GI50 (HCT-116 colon) was 40.2 nM, the TGI (HCT-116 colon) was 13800 nM and the GI50 (CAKI-1 renal) was 53.8 nM. It also gave a TGI (CAKI-1 renal) of 11200 nM, a GI50 (UO-31 renal) of 316 nM and a TGI (UO-31 renal) of 17200 nM. For the same compound, the GI50 (HOP-62 NSCLC) was 304 nM, the TGI (HOP-62 NSCLC) was 38500 nM and the GI50 (HS 578T breast) was 90.4 nM. The TGI (HS 578T breast) was 25700 nM, the GI50 (HCC-2998 colon) was 208 nM and the TGI (HCC-2998 colon) was 30600 nM. For the same compound, the GI50 (OVCAR-4 ovarian) was 818 nM, the TGI (OVCAR-4 ovarian) was 15300 nM and the GI50 (HL-60(TB) leukemia) was 31.5 nM. It also gave a TGI (HL-60(TB) leukemia) of 163 nM, a GI50 (SW-620 colon) of 39.4 nM and a TGI (SW-620 colon) of 14900 nM. The GI50 (NCI/ADR-RES ovarian) was 44.8 nM, the TGI (NCI/ADR-RES ovarian) was 1540 nM and the GI50 (NCI-H522 lung) was 77.8 nM. For the same compound, the TGI (NCI-H522 lung) was 9590 nM, the GI50 (RXF 393 renal) was 49.4 nM and the TGI (RXF 393 renal) was 1050 nM. It also gave a GI50 (SK-MEL-5 melanoma) of 68 nM, a TGI (SK-MEL-5 melanoma) of 2310 nM and a GI50 (SF-539 CNS) of 58.9 nM. For the same compound, the TGI (SF-539 CNS) was 384 nM, the GI50 (MDA-MB-435) was 21.1 nM and the TGI (MDA-MB-435) was 51 nM. It also gave a GI50 (SNB-75 CNS) of 51.4 nM, a TGI (SNB-75 CNS) of 15400 nM and a GI50 (UACC-62 melanoma) of 234 nM. It also gave a TGI (UACC-62 melanoma) of 18100 nM, a GI50 (PC-3 prostate) of 45.7 nM and a TGI (PC-3 prostate) of 6180 nM. The GI50 (TK-10 renal) was 6370 nM, the TGI (TK-10 renal) was 32700 nM and the GI50 (NCI-H23 lung) was 183 nM. It also gave a TGI (NCI-H23 lung) of 21100 nM, a GI50 (HCT-15 colon) of 45.9 nM and a TGI (HCT-15 colon) of 13200 nM. For the same compound, the GI50 (CCRF-CEM leukemia) was 40.2 nM, the TGI (CCRF-CEM leukemia) was 5260 nM and the GI50 (LOX IMVI melanoma) was 61.2 nM.
